The values that follow come from ChEMBL document CHEMBL1131604, “3,6-Diamino-10-methylacridan: uncharged precursor of acriflavine and its unique antimicrobial activity” (1998).

The structures appear in SMILES notation.

Experiment [1] concerns Human alphaherpesvirus 1. The experiment can be described thus: Reduction of titer of Herpes simplex type-1 virus after 2 hr of incubation at 0.01% concentration. In kind it is functional.
Experiment [2] has as its system Human alphaherpesvirus 1. The experiment can be described thus: Reduction of titer of Herpes simplex type-1 virus after 2 hr of incubation at 0.1% concentration. In kind it is functional.

For `CN1c2cc(N)ccc2Cc2ccc(N)cc21`, the figures for the TCID50 in the experiment on Human alphaherpesvirus 1 [1] and in the experiment on Human alphaherpesvirus 1 [2] were 1.6 and 3.7, respectively.
